# Source: patent publication US20210015834A1, “NK-1 ANTAGONISTS FOR USE IN THE TREATMENT OF OCULAR PAIN” (priority 2018, published 2021)
# Legend:
# [1] = test system: mouse cornea nociception; test: Measurement of cornea sensitivity, eye-wiping test (NaCl 5M); assay type: in vivo, mice; conditions: for MPE increase, overall: three experiments; for MPE (maximal possible effect): one 10 μl drop
# From the text: 8 week-old C57BL6/N (Charles-River, Italy) and B6.Cg-Tac1^tm1Bbm/J (SP-KO mouse, Jackson) male mice were used in all experiments. Carbon dioxide inhalation and subsequent cervical dislocation were applied to euthanize the animals. All experimental protocols were approved by the Animal Care and Use Committee of the IRCCS San Raffaele Scientific Institute, in accordance with the ARVO Statement for the Use of Animals in Ophthalmic and Vision Research.
# Mice 8-week-old C57BL6/N (Charles-River, Italy) and B6.Cg-Tac1^tm1Bbm/J (Jackson) corneal sensitivity was measured with the eye wiping test^36. Briefly, animals were placed individually in an empty cage for 5 min to get acclimatized; one drop (10 μl) of NaCl 5M was put into the right eye of the animal and eye wipings with the ipsilateral forepaw were counted for 30 s. Subsequently, a drop (10 μl) of Fosaprepitant (2, 10 and 50 mg/mL, powder was weighted and dissolved in PBS to reach the desired final concentration, Ivemend, Merck Sharp & Dohme B.V), PBS, Diclofenac (0.1%, Dicloftil, Farmingea) or Oxybuprocaine chloride (4 mg/ml, Novesina, Laboratoire Thea) was put on the same eye and left for 3 min. […] Three experiments were performed, each with 8 mice per group. In a sub-group of experiments, cornea sensitivity was tested 24 hours after 10 days of topical treatment (10 μl) with 2 mg/mL Fosaprepitant (6 times/day).
# Anti-nociceptive effect was calculated as maximal possible effect (% MPE or MPE %) for each mouse according to the following formula:
# % MPE=100×(post-treatment wipe count−pre-treatment wipe count)/(0−pre-treatment wipe count).
# Unpaired t-test was used to evaluate the differences in nociception after different treatments. A p value <0.05 was considered to be statistically significant. The statistical software GraphPad Prism 5.0 (GraphPad Software, La Jolla, Calif.) was used for all analyses. All data were expressed as mean±standard error of the means (SEM). All methods were performed in accordance with the relevant guidelines and regulations.
# [2] = test system: corneal sensitivity; test: Corneal sensitivity, Cochet-Bonnet aesthesiometer, in a treated patient; assay type: in vivo, human
# From the text: (§1) One patient affected with Stage II (Foster) ocular cicatritial pemphigoid and intractable ocular pain was recruited on a compassionate trial of Fosaprepitant, upon administration and acceptance of informed consent, after consultation with the San Raffaele Hospital Ethics Committee. The patient reported the pain to be located on the ocular surface of both eyes and rated it 9/10 on the right eye and 2/10 on the left eye. Visual acuity was light perception in both eyes and the left eye presented a descemetocele. In the right eye the cornea presented diffuse punctate keratopathy, and conjunctival scarring. All the medications in use at time of enrollment were maintained. These included topical medications: tacrolimus 0.02% 3 times a day, dexamethasone phosphate twice a day, Timolol-brinzolamide drops twice a day, lubricants 6 times a day. In addition, the patient was taking systemic prednisone (25 mg); other systemic immunosuppressants had been previously tried to control the disease but had been suspended due to inefficacy or intolerance. In an unsuccessful attempt to control ocular pain, the prednisone dosage was raised up to 25 mg per day and the patient had been started 3 months before with opioid analgesic Tapentadol 50 mg bid and paracetamol 1000 mg tid. Only the right eye was treated. In this study, the patient received treatment with ocular Fosaprepitant 10 mg/mL (50 μl) 6 times/day for 30 days.
# To test corneal sensitivity, a Cochet-Bonnet aesthesiometer (60 mm in length, 0.12 mm diameter) was used. The head of the subject was placed on the chinrest of the slit lamp, and the Cochet-Bonnet filament was neared the volunteer's eye with a perpendicular angle.
# (§2) Different filament lengths were tried (starting from 60 mm, 5 mm intervals) until response, and noted. In order to quantify subjective ocular pain, the treated patient was asked to rate the pain felt in the treated eye on a scale from 0 (no pain) to 10 (worst possible pain) before and after the treatment^38.
# [3] = test system: cornea; conditions: topical Fosaprepitant 10 mg/ml 6 times a day; cited from earlier work
# [4] = test system: ocular pain; test: Subjective ocular pain score (0-10) in a treated patient; assay type: in vivo, human
# From the text: as §1, §2
# [5] = test system: ocular surface; test: Gross signs of ocular surface toxicity in the human subject; assay type: in vivo; conditions: topical Fosaprepitant 10 mg/ml 6 times a day for 30 days
# From the text: as §1, with “In this study, the patient received treatment with ocular Fosaprepitant 10 mg/mL (50 μl) 6 times/day for 30 days.” left out
# [6] = test system: ocular surface; test: Gross signs of ocular surface toxicity in mice; conditions: topical Fosaprepitant
# [7] = Fosaprepitant 10 mg/ml 6 times a day, after one month of treatment
structure (smiles),measurement,setting,value
O=C(O)Cc1ccccc1Nc1c(Cl)cccc1Cl [Diclofenac],% MPE,"[1]; Diclofenac 0.1% topical, p=0.0029 vs Fosaprepitant 10 mg/ml",69.66%
"C[C@@H](O[C@H]1OCCN(Cc2nc(O)n(P(=O)(O)O)n2)[C@H]1c1ccc(F)cc1)c1cc(C(F)(F)F)cc(C(F)(F)F)c1 [Fosaprepitant, [3-{[(2R,3S)-2-[(1R)-1-[3,5-bis(trifluoromethyl)phenyl]ethoxy]-3-(4-fluorophenyl)morpholin-4-yl]methyl}-5-oxo-2H-1,2,4-triazol-1-yl]phosphonic acid]",Cochet Bonnet aesthesiometry,"[2]; Fosaprepitant 10 mg/ml 6 times a day, 2 hours after the first instillation, baseline 60 mm",50 mm
same,"Cochet Bonnet aesthesiometry, reduction",[2]; [7],50%
same,corneal sensitivity,[2]; follow-up visit one month after study exit,60 mm
same,signs of toxicity to the cornea,[3],did not show obvious signs of toxicity to the cornea
same,corneal pain score,"[4]; Fosaprepitant 10 mg/ml 6 times a day, 2 hours after the first instillation, baseline 9/10",0/10
same,pain score,[4]; [7],0/10
same,pain score,"[4]; follow-up visit one month after study exit, not constant",1/10
same,signs of ocular surface toxicity,[5],no gross signs of ocular surface toxicity
same,change of cornea sensitivity,"[1]; Fosaprepitant 2 mg/ml 6 times a day for 10 days, compared to 10 days PBS instillation, p=0.0195",−31.4%
same,reduction of cornea sensitivity,"[1]; Fosaprepitant 2 mg/ml one time, topical",did not significantly reduce cornea sensitivity
same,change of cornea sensitivity,"[1]; Fosaprepitant 2 mg/ml, single shot vs 10 days treatment, p=0.0174",−27.1%
same,reduction of nociception,"[1]; Fosaprepitant 10 mg/ml single administration vs PBS, p=0.029",−28.1%
same,maximum possible analgesic effect (MPE),"[1]; Fosaprepitant 10 mg/ml topical, p=0.0006 vs PBS",44.52%
same,corneal pain measured as eye wiping counts vs placebo,"[1]; Fosaprepitant 50 mg/ml administered once, 30 minutes after administration",significantly reduces corneal pain
same,maximum possible analgesic effect (MPE),"[1]; Fosaprepitant 50 mg/ml topical, p=0.0001 vs PBS",52.62%
same,"MPE increase, overall","[1]; Fosaprepitant 50 mg/ml vs PBS, p<0.0001",21.03 points
same,MPE (maximal possible effect),"[1]; Fosaprepitant 50 mg/ml, first experiment, SD 14.6",48.4%
same,MPE (maximal possible effect),"[1]; Fosaprepitant 50 mg/ml, second experiment, SD 24.9",43.2%
same,MPE (maximal possible effect),"[1]; Fosaprepitant 50 mg/ml, third experiment, SD 16.6",44.2%
same,reduction of nociception,"[1]; Fosaprepitant single administration, 10 mg/ml vs 2 mg/ml, p=0.0005",−23.1%
same,lower effective concentration in reducing corneal pain,[1]; single administration,10 mg/mL
same,"corneal sensitivity reduction, WT mice before vs after treatment","[1]; single administration of Fosaprepitant 10 mg/ml, p<0.0001",−47.9
same,signs of ocular surface toxicity,[6],no gross signs of ocular surface toxicity
CCCCOc1cc(C(=O)OCCN(CC)CC)ccc1N [Oxybuprocaine],% MPE,"[1]; Oxybuprocaine 4 mg/ml topical, p<0.0001 vs Fosaprepitant 10 mg/ml",80.59%
same,"MPE difference, Oxybuprocaine higher than Fosaprepitant","[1]; Oxybuprocaine 4 mg/ml vs Fosaprepitant 50 mg/ml, p<0.0001",35.89 MPE points
same,"MPE increase, overall","[1]; Oxybuprocaine 4 mg/ml vs PBS, p<0.0001",56.92 points
same,corneal pain measured as eye wiping counts vs placebo and Fosaprepitant,"[1]; Oxybuprocaine 4 mg/ml, topical",significantly reduces corneal pain
same,MPE (maximal possible effect),"[1]; oxybuprocaine chloride 4 mg/ml, first experiment, SD 9.7",80.8%
same,MPE (maximal possible effect),"[1]; oxybuprocaine chloride 4 mg/ml, second experiment, SD 13.9",84.1%
same,MPE (maximal possible effect),"[1]; oxybuprocaine chloride 4 mg/ml, third experiment, SD 10.9",78.2%
